Here are results for twelve compounds from ChEMBL document CHEMBL3045468, “I2 catalyzed FriedelCrafts alkylation reaction of substituted anilines with ninhydrin: formation of novel products and their antimicrobial evaluation” (2013).

In brackets after ≈: the same amount, converted by molar mass. Activity calls are given as the source filed them. The rule behind the calls is not given here.

Assay [1] relates to Bacillus pumilus. The assay is described as follows: Antibacterial activity against Bacillus pumilus 11778 clinical isolate assessed as growth inhibition after 24 hr by agar dilution method. The format is functional. As to conditions: Bacillus pumilus, 11778, 24 h.
Assay [2] concerns Shigella dysenteriae. The assay is described as follows: Antibacterial activity against Shigella dysenteriae 15 clinical isolate assessed as growth inhibition after 24 hr by agar dilution method. The format is functional.
For assay [3], the system named is Staphylococcus aureus. The assay is described as follows: Antibacterial activity against Staphylococcus aureus 29737 clinical isolate assessed as growth inhibition after 24 hr by agar dilution method. The assay is classed as functional.
Assay [4] relates to Cryptococcus neoformans. Briefly: Antifungal activity against Cryptococcus neoformans clinical isolate assessed as growth inhibition after 96 hr by agar dilution method. The assay is classed as functional.
Assay [5] relates to Candida tropicalis. The assay is described as follows: Antifungal activity against Candida tropicalis clinical isolate assessed as growth inhibition after 96 hr by agar dilution method. The format is functional.
For assay [6], the system named is Candida albicans. Briefly: Antifungal activity against Candida albicans clinical isolate assessed as growth inhibition after 96 hr by agar dilution method. The format is functional.
Assay [7] has as its system Aspergillus niger. The assay is described as follows: Antifungal activity against Aspergillus niger clinical isolate assessed as growth inhibition after 96 hr by agar dilution method. The format is functional.
For assay [8], the system named is Pseudomonas aeruginosa. Briefly: Antibacterial activity against Pseudomonas aeruginosa 71 clinical isolate assessed as growth inhibition at 1 mg/ml after 24 hr by NCCLS agar diffusion method. The format is functional.
Assay [9] deals with Bacillus pumilus. The assay is described as follows: Antibacterial activity against Bacillus pumilus 11778 clinical isolate assessed as growth inhibition at 1 mg/ml after 24 hr by NCCLS agar diffusion method. The format is functional. As to conditions: for zone of inhibition at 1000 µg/mL: Bacillus pumilus, 11778, 24 h, read-out: DIZ.
Assay [10] has as its system Escherichia coli. Briefly: Antibacterial activity against Escherichia coli 319 clinical isolate assessed as growth inhibition at 1 mg/ml after 24 hr by NCCLS agar diffusion method. As to conditions: for zone of inhibition at 1000 µg/mL: Escherichia coli, 319, 24 h, read-out: DIZ. The format is functional.
Another assay has as its system Micrococcus luteus. The assay is described as follows: Antibacterial activity against Micrococcus luteus ATCC 9341 clinical isolate assessed as growth inhibition at 1 mg/ml after 24 hr by NCCLS agar diffusion method. The assay is classed as functional.
Assay [11] deals with Shigella dysenteriae. Briefly: Antibacterial activity against Shigella dysenteriae 15 clinical isolate assessed as growth inhibition at 1 mg/ml after 24 hr by NCCLS agar diffusion method. The assay is classed as functional. Conditions: for zone of inhibition at 1000 µg/mL: Shigella dysenteriae, 15, 24 h, read-out: DIZ.
Assay [12] relates to Staphylococcus aureus. Briefly: Antibacterial activity against Staphylococcus aureus 29737 clinical isolate assessed as growth inhibition at 1 mg/ml after 24 hr by NCCLS agar diffusion method. The assay is classed as functional.
Assay [13] has as its system Candida tropicalis. Briefly: Antifungal activity against Candida tropicalis clinical isolate assessed as growth inhibition at 1 mg/ml after 96 hr by NCCLS agar diffusion method. The format is functional. As to conditions: read-out: DIZ.
Assay [14] has as its system Candida albicans. Briefly: Antifungal activity against Candida albicans clinical isolate assessed as growth inhibition at 1 mg/ml after 96 hr by NCCLS agar diffusion method. The assay is classed as functional. As to conditions: read-out: DIZ.
The test system of assay [15] is Aspergillus niger. Briefly: Antifungal activity against Aspergillus niger clinical isolate assessed as growth inhibition at 1 mg/ml after 96 hr by NCCLS agar diffusion method. The assay is classed as functional. As to conditions: read-out: DIZ.
The test system of assay [16] is Escherichia coli. The assay is described as follows: Antibacterial activity against Escherichia coli 319 clinical isolate assessed as morphological changes at MIC after 24 hr by scanning electron microscopic analysis. The assay is classed as functional, organism-based.
In assay [17] the test system is Vibrio cholerae. Briefly: Bactericidal activity against Vibrio cholerae 759 clinical isolate assessed as reduction of viable CFU count at MIC measured up to 48 hr relative to untreated control. The format is functional, organism-based.
Assay [18] has as its system Escherichia coli. Briefly: Bactericidal activity against Escherichia coli 319 clinical isolate assessed as reduction of viable CFU count at MIC measured up to 48 hr relative to untreated control. The assay is classed as functional, organism-based.
Assay [19] relates to Klebsiella pneumoniae. Briefly: Antibacterial activity against Klebsiella pneumoniae J/I/4 clinical isolate assessed as growth inhibition at 1 mg/ml after 24 hr by NCCLS agar diffusion method. The format is functional. Conditions: for zone of inhibition at 1000 µg/mL: J/I/4, 24 h, read-out: DIZ.
For assay [20], the system named is Vibrio cholerae. The assay is described as follows: Antibacterial activity against Vibrio cholerae 759 clinical isolate assessed as growth inhibition at 1 mg/ml after 24 hr by NCCLS agar diffusion method. The format is functional. Conditions: for zone of inhibition at 1000 µg/mL: Vibrio cholerae, 759, 24 h, read-out: DIZ.
For assay [21], the system named is Cryptococcus neoformans. Briefly: Antifungal activity against Cryptococcus neoformans clinical isolate assessed as growth inhibition at 1 mg/ml after 96 hr by NCCLS agar diffusion method. The format is functional. Conditions: read-out: DIZ.
In assay [22] the test system is Klebsiella pneumoniae. The assay is described as follows: Antibacterial activity against Klebsiella pneumoniae J/I/4 clinical isolate assessed as growth inhibition after 24 hr by agar dilution method. The format is functional.
Assay [23] concerns Vibrio cholerae. Briefly: Antibacterial activity against Vibrio cholerae 759 clinical isolate assessed as growth inhibition after 24 hr by agar dilution method. The format is functional.
Assay [24] concerns Pseudomonas aeruginosa. Briefly: Antibacterial activity against Pseudomonas aeruginosa 71 clinical isolate assessed as growth inhibition after 24 hr by agar dilution method. The format is functional.
In assay [25] the test system is Escherichia coli. The assay is described as follows: Antibacterial activity against Escherichia coli 319 clinical isolate assessed as growth inhibition after 24 hr by agar dilution method. The assay is classed as functional.

As for `CC1(C)S[C@@H]2[C@H](NC(=O)[C@H](N)c3ccc(O)cc3)C(=O)N2[C@H]1C(=O)O` [AMOXICILLIN], the MIC was 500 µg/mL (≈ 1370 µM) with Bacillus pumilus [1]; 10000 µg/mL (≈ 27400 µM) in the assay with Shigella dysenteriae [2] (Shigella dysenteriae, 15, 24 h); 500 µg/mL (≈ 1370 µM) in the assay on Staphylococcus aureus [3] (Staphylococcus aureus, 29737, 24 h).

For the compound `OC(Cn1cncn1)(Cn1cncn1)c1ccc(F)cc1F` [FLUCONAZOLE], the MIC worked out at 8 µg/mL (≈ 26.1 µM) in the assay on Cryptococcus neoformans [4], 8 µg/mL (≈ 26.1 µM) in the assay with Candida tropicalis [5], 4 µg/mL (≈ 13.1 µM) in the assay with Candida albicans [6] and 10 µg/mL (≈ 32.7 µM) with Aspergillus niger [7].

Regarding `Cc1cc(C2(c3ccc(N)c(C)c3)C(=O)c3ccccc3C2=O)ccc1N`, the “growth inhibition (GI)” value in the assay with Pseudomonas aeruginosa [8], in the assay on Micrococcus luteus, in the assay with Staphylococcus aureus [12] and with Klebsiella pneumoniae [19] was “inactive” throughout. The zone of inhibition at 1000 µg/mL in the assay with Bacillus pumilus [9] amounted to 7 mm; in the assay with Escherichia coli [10], 7 mm; with Shigella dysenteriae [11], 7 mm; with Candida tropicalis [13], 8 mm; in the assay on Candida albicans [14] it was 10 mm; in the assay with Aspergillus niger [15], 7.6 mm. For the same compound, in the assay with Vibrio cholerae [20], the zone of inhibition at 1000 µg/mL was 8 mm. Besides, the results for the MIC in the assay with Candida tropicalis [5], with Candida albicans [6] and in the assay with Aspergillus niger [7] were 2000 µg/mL (≈ 5610 µM), 1000 µg/mL (≈ 2810 µM) and 1000 µg/mL (≈ 2810 µM), respectively. The result with Escherichia coli [16], in the assay with Vibrio cholerae [17] and in the assay on Escherichia coli [18] was Active.

With `Nc1ccc(C2(c3ccc(N)cc3)C(=O)c3ccccc3C2=O)cc1`, the “growth inhibition (GI)” value in the assay on Pseudomonas aeruginosa [8], in the assay on Micrococcus luteus, in the assay on Staphylococcus aureus [12] and in the assay on Vibrio cholerae [20] was “inactive” throughout. Also, the zone of inhibition at 1000 µg/mL turned out to be 8 mm in the assay on Bacillus pumilus [9]; 6 mm in the assay on Escherichia coli [10]; 7 mm in the assay on Shigella dysenteriae [11]; 8.2 mm with Candida tropicalis [13]; 9 mm in the assay on Candida albicans [14]; 10 mm with Aspergillus niger [15]. For the same compound, the zone of inhibition at 1000 µg/mL in the assay with Klebsiella pneumoniae [19] amounted to 7 mm. Moreover, the MIC with Candida tropicalis [5], in the assay on Candida albicans [6] and in the assay with Aspergillus niger [7] was 1000 µg/mL (≈ 3050 µM) each time.

For the compound `Nc1ccc(C2(c3ccc(N)c(Br)c3)C(=O)c3ccccc3C2=O)cc1Br`, the “growth inhibition (GI)” value in the assay on Pseudomonas aeruginosa [8], in the assay with Micrococcus luteus, in the assay on Shigella dysenteriae [11] and with Staphylococcus aureus [12] was “inactive” throughout. Moreover, the zone of inhibition at 1000 µg/mL in the assay with Bacillus pumilus [9] amounted to 8 mm; in the assay on Escherichia coli [10], 8 mm; with Cryptococcus neoformans [21], 8 mm; in the assay on Candida tropicalis [13] it was 8 mm; in the assay on Candida albicans [14] it was 10 mm; in the assay on Aspergillus niger [15], 12 mm. For the same compound, the figures for the zone of inhibition at 1000 µg/mL in the assay with Klebsiella pneumoniae [19] and with Vibrio cholerae [20] were 6 mm and 9 mm, respectively. Moreover, the MIC in the assay on Cryptococcus neoformans [4] amounted to 1500 µg/mL (≈ 3090 µM); in the assay on Candida tropicalis [5], 2000 µg/mL (≈ 4110 µM); with Candida albicans [6] it was 2500 µg/mL (≈ 5140 µM); in the assay with Aspergillus niger [7] it was 1000 µg/mL (≈ 2060 µM).

Take GENTAMICIN: the MIC was determined as 250 µg/mL in the assay with Klebsiella pneumoniae [22]; 2000 µg/mL in the assay on Vibrio cholerae [23]; 4000 µg/mL in the assay on Pseudomonas aeruginosa [24]; 500 µg/mL with Escherichia coli [25]; 2000 µg/mL in the assay on Shigella dysenteriae [2]; 1000 µg/mL with Staphylococcus aureus [3].

Regarding `COc1cc(C2(Nc3cc(Cl)ccc3OC)C(=O)c3ccccc3C2=O)c(Cl)cc1N`, the “growth inhibition (GI)” value with Pseudomonas aeruginosa [8], in the assay on Bacillus pumilus [9], with Escherichia coli [10], with Shigella dysenteriae [11], in the assay with Staphylococcus aureus [12] and with Klebsiella pneumoniae [19] was “inactive” in each case. Moreover, the zone of inhibition at 1000 µg/mL in the assay on Micrococcus luteus (ATCC 9341, 24 h, read-out: DIZ) was found to be 9 mm; with Vibrio cholerae [20] it was 8 mm. The MIC with Vibrio cholerae [23] (Vibrio cholerae, 759, 24 h) worked out at 32000 µg/mL (≈ 70000 µM). For the same compound, the result in the assay with Vibrio cholerae [17] and in the assay on Escherichia coli [18] was Active.

Turning to `Cc1cc(C2(c3cc(C)c(N)cc3F)C(=O)c3ccccc3C2=O)c(F)cc1N`, the “growth inhibition (GI)” value in the assay on Pseudomonas aeruginosa [8], in the assay with Micrococcus luteus, in the assay with Shigella dysenteriae [11], with Staphylococcus aureus [12] and in the assay with Vibrio cholerae [20] was “inactive” each time. Moreover, the zone of inhibition at 1000 µg/mL with Bacillus pumilus [9], in the assay with Escherichia coli [10] and in the assay with Klebsiella pneumoniae [19] was 7 mm in each case.

On to `Nc1c(Cl)cc(Cl)cc1C1(Nc2ccc(Cl)cc2Cl)C(=O)c2ccccc2C1=O`, for which the “growth inhibition (GI)” value in the assay with Pseudomonas aeruginosa [8], with Bacillus pumilus [9], with Micrococcus luteus and with Staphylococcus aureus [12] was “inactive” throughout. For the same compound, the zone of inhibition at 1000 µg/mL turned out to be 8 mm in the assay with Escherichia coli [10]; 7 mm with Shigella dysenteriae [11]; 8 mm in the assay on Cryptococcus neoformans [21]; 8 mm with Aspergillus niger [15]; 7 mm in the assay with Klebsiella pneumoniae [19]; 7 mm in the assay with Vibrio cholerae [20]. For the same compound, the MIC with Candida tropicalis [5] and with Aspergillus niger [7] was 1000 µg/mL (≈ 2150 µM) in each case.

Regarding `CN(C)c1ccc(C2(O)C(=O)c3ccccc3C2=O)cc1`, the “growth inhibition (GI)” value in the assay on Pseudomonas aeruginosa [8], in the assay on Bacillus pumilus [9], in the assay with Micrococcus luteus, in the assay with Shigella dysenteriae [11], with Klebsiella pneumoniae [19] and in the assay with Vibrio cholerae [20] was “inactive” throughout. The zone of inhibition at 1000 µg/mL in the assay with Escherichia coli [10] came to 7 mm; in the assay on Staphylococcus aureus [12] (Staphylococcus aureus, 29737, 24 h, read-out: DIZ) it was 7 mm.

Take `Nc1ccc(C2(c3ccc(N)c(Cl)c3)C(=O)c3ccccc3C2=O)cc1Cl`: the “growth inhibition (GI)” value in the assay with Pseudomonas aeruginosa [8], with Bacillus pumilus [9], in the assay with Micrococcus luteus, with Staphylococcus aureus [12] and in the assay with Vibrio cholerae [20] was “inactive” in each case. Besides, the zone of inhibition at 1000 µg/mL in the assay on Escherichia coli [10] worked out at 8 mm; with Shigella dysenteriae [11], 6 mm; in the assay on Klebsiella pneumoniae [19] it was 8 mm. In the assay with Shigella dysenteriae [2] (Shigella dysenteriae, 15, 24 h), the MIC was 32000 µg/mL (≈ 80600 µM).

On to `CNc1ccc(C2(c3ccc(NC)cc3)C(=O)c3ccccc3C2=O)cc1`, for which the “growth inhibition (GI)” value in the assay on Pseudomonas aeruginosa [8], in the assay on Bacillus pumilus [9], in the assay with Micrococcus luteus, in the assay with Shigella dysenteriae [11] and in the assay on Staphylococcus aureus [12] was “inactive” in each case. For the same compound, the zone of inhibition at 1000 µg/mL in the assay on Escherichia coli [10] stood at 7 mm; with Klebsiella pneumoniae [19] it was 7.5 mm; with Vibrio cholerae [20], 8 mm.
